Experimental data published in paper PMC5298233, “Substrate-analogous inhibitors exert antimalarial action by targeting the Plasmodium lactate transporter PfFNT at nanomolar scale” (PLoS Pathogens, 2017).

Molecular target: PfFNT G107S (Plasmodium falciparum, UniProt O77389, G107S)
Test: cell-based
Settings: for IC50: read-out: IC50 (PfFNT G107S / yeast)

Compound	IC50 [µM]	relative efficiency in blocking PfFNT G107S (mutant versus wildtype) (compared with BH-296)
COc1ccc(C(=O)/C=C(\O)C(F)(F)C(F)(F)F)cc1 [BH-296]	2.3	–
CC(=O)C=C(O)C(F)(F)C(F)(F)F [Pharmacophore, 5,5,6,6,6-pentafluoro-4-hydroxyhex-3-en-2-one]	8.1	four times better relative efficiency than BH-296
COc1ccc2c(c1)OC(O)(C(F)(F)C(F)(F)F)CC2=O (stereo not shown) [MMV007839]	21	–
